What was measured:
Conditions in all cases: ATP, Mg2+; 0.1 M Tris-HCl pH 7.5; 37°C
PK (propionate kinase) = tested on: T1, PK (propionate kinase)
T1 construct: gene tdcD
From the text: coupled ADP-hexokinase/G6PDH NADPH assay on PK (propionate kinase)

AK (acetate kinase) = target: T2, AK (acetate kinase) (Escherichia coli, UniProt P0A6A3)
T2 construct: gene ackA
From the text: coupled ADP-hexokinase/G6PDH NADPH assay on AK (acetate kinase)

[1] = target: T3, His-tagged BK (butyrate kinase; ToBKIII) (Thermosediminibacter oceani, UniProt D9S2G7); assay: coupled ADP-hexokinase/G6PDH NADPH assay; type: biochemical
T3 construct: gene buk; entire gene (about 1,100 bp, about 360 residues) NdeI/HindIII in pET21a(+), E. coli BL21(DE3), Ni column; C-terminal vector His tag; sense primer encodes N-terminus MTFYGILA; antisense primer encodes C-terminus EKPKEYL before HindIII site (KL)
T3 sequence (D9S2G7 1-357): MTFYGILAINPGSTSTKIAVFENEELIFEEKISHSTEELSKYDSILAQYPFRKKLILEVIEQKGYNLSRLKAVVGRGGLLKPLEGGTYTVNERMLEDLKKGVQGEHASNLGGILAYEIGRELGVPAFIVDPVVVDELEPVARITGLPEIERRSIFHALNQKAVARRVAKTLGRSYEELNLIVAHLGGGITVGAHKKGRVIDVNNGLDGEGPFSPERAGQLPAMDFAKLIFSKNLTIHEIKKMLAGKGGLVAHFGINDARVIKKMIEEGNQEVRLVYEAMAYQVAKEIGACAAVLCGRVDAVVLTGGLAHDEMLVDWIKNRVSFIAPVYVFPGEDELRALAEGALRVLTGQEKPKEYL
From the text: coupled ADP-hexokinase/G6PDH NADPH assay on His-tagged BK (butyrate kinase; ToBKIII)

T2 sequence (P0A6A3 whole entry): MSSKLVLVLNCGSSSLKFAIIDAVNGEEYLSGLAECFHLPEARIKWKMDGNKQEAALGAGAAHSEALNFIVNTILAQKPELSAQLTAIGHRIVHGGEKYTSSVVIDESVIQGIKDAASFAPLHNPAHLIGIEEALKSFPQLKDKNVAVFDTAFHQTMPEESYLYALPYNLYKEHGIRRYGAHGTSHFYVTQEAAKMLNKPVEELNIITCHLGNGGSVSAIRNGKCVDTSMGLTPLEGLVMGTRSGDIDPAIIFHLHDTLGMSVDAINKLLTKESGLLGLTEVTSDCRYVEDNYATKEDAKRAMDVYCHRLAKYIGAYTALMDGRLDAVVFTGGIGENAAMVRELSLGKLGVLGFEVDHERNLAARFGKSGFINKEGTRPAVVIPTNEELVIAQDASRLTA

SMILES	PK / Km (PK (propionate kinase)) [mmol]	AK / Km (AK (acetate kinase)) [mmol]	BK / Km [1] [mmol]
CC(=O)O [C2, acetic acid]	13.2	9.1	
CCC(=O)O [C3, propionic acid]	1.8		5.1
CCCC(=O)O [C4, butyric acid]	280		2.2
CCCCC(=O)O [C5, valeric acid]			3.3
CCCCCC(=O)O [C6, caproic acid]			8.7
CC(C)C(=O)O [IC4, isobutyric acid]			3.2
CC(C)CC(=O)O [IC5, isovaleric acid]			2.1

From PMC9286277, “Enzymatic measurement of short-chain fatty acids and application in periodontal disease diagnosis” (PLoS ONE, 2022)
